Paper PMC5209718, “Piscidin-1-analogs with double L- and D-lysine residues exhibited different conformations in lipopolysaccharide but comparable anti-endotoxin activities” (Scientific Reports, 2017)
In brackets after ≈: the same amount, converted by molar mass. Where two headings read alike, the source gives them in different places. Residues, ends and D or L forms follow the SMILES beside them.

Columns and labels:
[1] = tested on: E. coli (ATCC 25922); experiment: Antibacterial activity (MIC), liquid culture in 96-well microtiter plates; type: cell-based; settings: read-out: Minimum inhibitory conc. (MIC) against bacteria 11
Excerpt: (§1) Piscidin-1 and its analogs were examined for bacterial growth-inhibiting activity in liquid cultures against Gram-positive bacteria including MRSA strains and Gram-negative bacteria (Table 2). […] The therapeutic index is a parameter that signify the specificity or selectivity of antimicrobial agents towards microorganisms over mammalian cells.
(§2) Antibacterial assays with all the peptides were done in 96-well microtiter plates against different Gram-positive, Gram-negative and resistant bacteria as described earlier.

[2] = tested on: Staphylococcus aureus (ATCC 700698 MRSA); experiment: microbe, parasite or virus in culture
Excerpt: as §1, §2

[3] = tested on: Staphylococcus aureus (ATCC 700699 MRSA); experiment: microbe, parasite or virus in culture
Excerpt: as §1, §2

[4] = tested on: Staphylococcus aureus (ATCC 1708 MRSA); experiment: microbe, parasite or virus in culture
Excerpt: as §1, §2

[5] = tested on: Staphylococcus aureus (ATCC BAA-44 MRSA); experiment: microbe, parasite or virus in culture
Excerpt: as §1, §2

[6] = tested on: Staphylococcus aureus (ATCC 33592 Gentamycin Resistant); experiment: microbe, parasite or virus in culture
Excerpt: as §1, §2

[7] = tested on: P. aeruginosa (ATCC BAA-427); experiment: microbe, parasite or virus in culture; type: cell-based; settings: for MIC: P. aeruginosa (ATCC BAA-427), means of three independent experiments each in duplicate ± SD, read-out: Minimum inhibitory conc. (MIC) against bacteria 8; for Minimum inhibitory conc. (MIC) against bacteria 8: ATCC BAA-427
Excerpt: as §1, §2

[8] = tested on: Staphylococcus aureus (ATCC 25923); experiment: microbe, parasite or virus in culture; type: cell-based; settings: for MIC: Staphylococcus aureus (ATCC 25923), means of three independent experiments each in duplicate ± SD, read-out: Minimum inhibitory conc. (MIC) against bacteria 1; for Minimum inhibitory conc. (MIC) against bacteria 1: ATCC 25923
Excerpt: as §1, §2

[9] = tested on: B. subtilis (ATCC 6633); experiment: microbe, parasite or virus in culture; type: cell-based; settings: for MIC: B. subtilis (ATCC 6633), means of three independent experiments each in duplicate ± SD, read-out: Minimum inhibitory conc. (MIC) against bacteria 9; for Minimum inhibitory conc. (MIC) against bacteria 9: ATCC 6633
Excerpt: as §1, §2

[10] = tested on: Staphylococcus aureus (ATCC 29213); experiment: microbe, parasite or virus in culture; type: cell-based; settings: for MIC: Staphylococcus aureus (ATCC 29213), means of three independent experiments each in duplicate ± SD, read-out: Minimum inhibitory conc. (MIC) against bacteria 2; for Minimum inhibitory conc. (MIC) against bacteria 2: ATCC 29213
Excerpt: as §1, §2

[11] = tested on: K. pneumoniae (ATCC 27736); experiment: microbe, parasite or virus in culture; type: cell-based; settings: for MIC: K. pneumoniae (ATCC 27736), means of three independent experiments each in duplicate ± SD, read-out: Minimum inhibitory conc. (MIC) against bacteria 10; for Minimum inhibitory conc. (MIC) against bacteria 10: ATCC 27736
Excerpt: as §1, §2

[12] = tested on: human red blood cells (hRBCs); type: cell-based
Excerpt: Cytotoxic activity of piscidin-1 and its designed analogs was examined by assaying the lysis of human red blood cells (hRBCs) and the viability of murine 3T3 cells in presence of these peptides. […] Introduction of D-lysine (dK)residues instead of threonine residues at 15th & 21st positions further reduced the haemolytic activity of piscidin-1 (Fig. 1A). Overall, haemolytic activity of these peptides against hRBCs followed the order piscidin-1 > T15K-piscidin-1 > T15dK-piscidin-1 > T15,21K-piscidin-1 > T15,21dK-piscidin-1. Viability of 3T3 cells as determined by MTT assay in the presence of these peptides followed the same trend as their haemolytic activity (Fig. 1B).
Haemolytic activity of the peptides against human red blood cells in PBS was performed by assaying the ability of the peptides to lyse the hRBCs[24][48]. For this purpose, fresh human red blood cells (hRBCs) were collected in the presence of an anti-coagulant from a healthy volunteer. After washing the blood three times with PBS haemolytic activity of the peptides were determined as reported previously. Methodology of our experiment with human blood was in accordance with relevant guidelines and regulations of CSIR-central drug research institute ethics committee and was approved by it with approval No. CDRI/IEC/2014/A5. Further, informed consent was obtained from the healthy volunteer before collection of blood as per the guideline of our Institutional ethics committee.

[13] = tested on: hRBCs; experiment: Localization of NBD-labelled peptides onto hRBCs by confocal microscopy, quantitative fluorescence; type: cell-based, human; settings: NBD-labelled peptides ~10.0 μM, at least 25 cells analysed
Excerpt: Figure 3 Confocal laser scanning microscopy to look into the localization of piscidin-1 and its selected analogs onto E. coli and hRBCs. […] Fluorescence and DIC images for treatment of different cells with each of the peptides are shown as marked on top of the respective panel. Panels (C) and (D) show the quantitative analysis of fluorescence intensity of E. coli and hRBCsbound to NBD-labeled piscidin-1, T15,21K-piscidin-1 and T15,21dK-piscidin-1 respectively.
The localization of NBD-labeled piscidin-1, T15,21K-piscidin-1 and T15,21dK-piscidin-1 was also studied onto hRBCs by confocal microscopy. […] Quantitative analyses of the confocal microscopic fluorescence images were carried out. At least 25 cells from fluorescence images for each set of experiments were included in the analysis. The results are shown at the bottom of the fluorescence images of the respective cells (Fig. 3C and D).

[14] = tested on: E. coli 0111:B4 LPS-administered mice; experiment: In vivo anti-LPS activity: survival of LPS-administered mice (septic shock); settings: single dose 1.0 mg/kg i.p. after LPS 12 mg/kg; BALB/c mice; monitored 7 days
Description: Septic shock in BALB/c mice was induced by intraperitoneal (i.p.) injection of E. coli LPS (12 mg/kg) followed by i.p. injection of T15,21K-piscidin-1 (0.5 mg/Kg) or T15,21dK-piscidin-1 (1 mg/Kg) or polymyxin B (1 mg/Kg) ~5 min later. Mice treated with only saline was taken as control. Survival of the animals (n = 5) was monitored for 7 days (***p < 0.0001, log-rank test).
Polymyxin B was taken as the positive control and the experiments were performed as reported earlier[14][30][31].
In vivo studies, treat ment of Mice
Female BALB/c mice (National laboratory animal centre, central drug research institute,
Lucknow) we re given a s tandard laborato r y diet an d water ad libitum and housed under controlled
environmental conditions. The mice wer e approx imatel y 25 g each at the st art of experiments. All
the mice were divided into experimental groups for the administration of LPS and peptides. Mice
were treated with 12 m g/ kg E. coli 0111: B4 LPS i n presen ce and in absen ce of peptide in different
experimental groups. The mice treated with saline onl y, in absence of LP S were considered as
experimental controls. To study the efficacy of a peptide in neutralizing LPS-induced pro-
inflammatory responses in mice ~5 min post LPS treatment, the respective peptide was
administered i.p. at a site other than the one, used for LPS injection. […] Survival of mice was
monitored for 7 da ys. Survival of mice was also mo nitored following th e treatment of onl y p eptides
for investigating their toxic effects.

[15] = means of three independent experiments each in duplicate ± SD
[16] = Staphylococcus aureus (ATCC 700698 MRSA), means of three independent experiments each in duplicate ± SD
[17] = Staphylococcus aureus (ATCC 700699 MRSA), means of three independent experiments each in duplicate ± SD
[18] = Staphylococcus aureus (ATCC 1708 MRSA), means of three independent experiments each in duplicate ± SD
[19] = Staphylococcus aureus (ATCC BAA-44 MRSA), means of three independent experiments each in duplicate ± SD
[20] = Staphylococcus aureus (ATCC 33592 Gentamycin Resistant), means of three independent experiments each in duplicate ± SD

CCn1cc(C(=O)O)c(=O)c2cc(F)c(N3CCNCC3)cc21 [Norfloxacin, reference compound]
MIC ([1]; Escherichia coli, ATCC25922, means of three independent experiments each in duplicate ± SD): 0.125 µM (≈ 0.0399 µg/mL) | MIC ([2]; Staphylococcus aureus, ATCC700698|MRSA, read-out: Minimum inhibitory conc. (MIC) against bacteria 6): > 150 µM | MIC ([3]; Staphylococcus aureus, ATCC700699|MRSA, read-out: Minimum inhibitory conc. (MIC) against bacteria 3): > 150 µM | MIC ([4]; Staphylococcus aureus, ATCC1708|MRSA, read-out: Minimum inhibitory conc. (MIC) against bacteria 7): > 150 µM | MIC ([5]; Staphylococcus aureus, ATCCBAA44|MRSA, read-out: Minimum inhibitory conc. (MIC) against bacteria 5): 39 µM (≈ 12.5 µg/mL) | MIC ([6]; Staphylococcus aureus, ATCC33592, read-out: Minimum inhibitory conc. (MIC) against bacteria 4): 2.44 µM (≈ 0.779 µg/mL) | MIC ([7]; Pseudomonas aeruginosa, ATCCBAA427): 2.19 µM (≈ 0.699 µg/mL) | MIC ([8]; ATCC25923): 1.22 µM (≈ 0.39 µg/mL) | MIC ([9]; Bacillus subtilis, ATCC6633): 0.39 µM (≈ 0.125 µg/mL) | MIC ([10]; ATCC29213): 2.44 µM (≈ 0.779 µg/mL) | MIC ([11]; Klebsiella pneumoniae, ATCC27736): 0.125 µM (≈ 0.0399 µg/mL)

CC[C@H](C)[C@H](NC(=O)CNC(=O)[C@H](CCCNC(=N)N)NC(=O)[C@H](Cc1ccccc1)NC(=O)[C@@H](NC(=O)[C@H](Cc1c[nH]cn1)NC(=O)[C@H](Cc1c[nH]cn1)NC(=O)[C@H](Cc1ccccc1)NC(=O)[C@@H](N)Cc1ccccc1)[C@@H](C)CC)C(=O)N[C@H](C(=O)N[C@@H](Cc1c[nH]cn1)C(=O)N[C@H](C(=O)NCC(=O)N[C@@H](CCCCN)C(=O)N[C@H](CCCCN)C(=O)N[C@H](C(=O)N[C@@H](Cc1c[nH]cn1)C(=O)N[C@@H](CCCNC(=N)N)C(=O)N[C@@H](CC(C)C)C(=O)N[C@H](C(=O)N[C@H](C(=O)NCC(N)=O)[C@@H](C)O)C(C)C)[C@@H](C)CC)C(C)C)C(C)C [T15dK Piscidin-1] (HELM PEPTIDE1{F.F.H.H.I.F.R.G.I.V.H.V.G.K.[dK].I.H.R.L.V.T.G.[am]}$$$$V2.0)
MIC [1, 15]: 4.0 µM (≈ 10.4 µg/mL) | Minimum inhibitory conc. (MIC) against bacteria 6 ([2]; ATCC 700698): 5.0 ± 0.7 µM (≈ 13 µg/mL) | Minimum inhibitory conc. (MIC) against bacteria 3 ([3]; ATCC 700699): 10.0 ± 1.4 µM (≈ 26 µg/mL) | Minimum inhibitory conc. (MIC) against bacteria 7 ([4]; ATCC 1708): 2.5 ± 0.4 µM (≈ 6.5 µg/mL) | Minimum inhibitory conc. (MIC) against bacteria 5 ([5]; ATCC BAA-44): 2.5 ± 0.4 µM (≈ 6.5 µg/mL) | Minimum inhibitory conc. (MIC) against bacteria 4 ([6]; ATCC 33592): 2.5 ± 0.4 µM (≈ 6.5 µg/mL) | HC50, peptide concentration leading to 50% lysis of human RBC [12]: 125 µM | Minimum inhibitory conc. (MIC) against bacteria 8 [7]: 7.5 ± 1.0 µM (≈ 19.5 µg/mL) | Minimum inhibitory conc. (MIC) against bacteria 1 [8]: 2.5 ± 0.4 µM (≈ 6.5 µg/mL) | Minimum inhibitory conc. (MIC) against bacteria 9 [9]: 9.0 ± 1.3 µM (≈ 23.4 µg/mL) | Minimum inhibitory conc. (MIC) against bacteria 2 [10]: 2.5 ± 0.4 µM (≈ 6.5 µg/mL) | Minimum inhibitory conc. (MIC) against bacteria 10 [11]: 3.6 ± 0.5 µM (≈ 9.35 µg/mL)

Gentamycin [reference compound]
MIC [1, 15]: 3.14 µM | Minimum inhibitory conc. (MIC) against bacteria 6 [2, 16]: >100 µM | Minimum inhibitory conc. (MIC) against bacteria 3 [3, 17]: >100 µM | Minimum inhibitory conc. (MIC) against bacteria 7 [4, 18]: 3.2 µM | Minimum inhibitory conc. (MIC) against bacteria 5 [5, 19]: >50 µM | Minimum inhibitory conc. (MIC) against bacteria 4 [6, 20]: >100 µM | MIC [7]: 1.46 µM | MIC [8]: 0.8 µM | MIC [9]: 0.048 µM | MIC [10]: 1.6 µM | MIC [11]: 3.26 µM

H-FFHHIFRGIVHVGKKIHRLVTG-NH2 [T15K Piscidin-1]
MIC [1, 15]: 3.5 µM | Minimum inhibitory conc. (MIC) against bacteria 6 [2, 16]: 2.5 ± 0.4 µM | Minimum inhibitory conc. (MIC) against bacteria 3 [3, 17]: 2.5 ± 0.4 µM | Minimum inhibitory conc. (MIC) against bacteria 7 [4, 18]: 2.5 ± 0.4 µM | Minimum inhibitory conc. (MIC) against bacteria 5 [5, 19]: 1.25 ± 0.3 µM | Minimum inhibitory conc. (MIC) against bacteria 4 [6, 20]: 1.25 ± 0.3 µM | HC50, peptide concentration leading to 50% lysis of human RBC [12]: 46 µM | Minimum inhibitory conc. (MIC) against bacteria 8 [7]: 7.0 ± 1.0 µM | Minimum inhibitory conc. (MIC) against bacteria 1 [8]: 1.25 ± 0.3 µM | Minimum inhibitory conc. (MIC) against bacteria 9 [9]: 8.5 ± 1.2 µM | Minimum inhibitory conc. (MIC) against bacteria 2 [10]: 2.5 ± 0.4 µM | Minimum inhibitory conc. (MIC) against bacteria 10 [11]: 3.2 ± 0.4 µM

H-FFHHIFRGIVHVGKTIHRLVTG-NH2 [Piscidin-1]
MIC [1, 15]: 3.0 µM | Minimum inhibitory conc. (MIC) against bacteria 6 ([2]; ATCC 700698): 2.5 ± 0.4 µM | Minimum inhibitory conc. (MIC) against bacteria 3 ([3]; ATCC 700699): 5.0 ± 0.7 µM | Minimum inhibitory conc. (MIC) against bacteria 7 ([4]; ATCC 1708): 2.5 ± 0.4 µM | Minimum inhibitory conc. (MIC) against bacteria 5 ([5]; ATCC BAA-44): 2.5 ± 0.4 µM | Minimum inhibitory conc. (MIC) against bacteria 4 ([6]; ATCC 33592): 2.5 ± 0.4 µM | HC50, peptide concentration leading to 50% lysis of human RBC [12]: 15 µM | Minimum inhibitory conc. (MIC) against bacteria 8 [7]: 6.0 ± 0.7 µM | Minimum inhibitory conc. (MIC) against bacteria 1 [8]: 1.25 ± 0.3 µM | Minimum inhibitory conc. (MIC) against bacteria 9 [9]: 8.0 ± 1.0 µM | Minimum inhibitory conc. (MIC) against bacteria 2 [10]: 2.5 ± 0.4 µM | Minimum inhibitory conc. (MIC) against bacteria 10 [11]: 3.8 ± 0.5 µM

X-FFHHIFRGIVHVGKKIHRLVKG–amide [NBD-T15,21K-piscidin-1, T15,21K-piscidin-1 labelled at its N-terminus by NBD]
fold lower fluorescence of hRBCs bound to peptide than cells bound to NBD-labeled piscidin-1 [13]: about 5 fold

X-FFHHIFRGIVHVGKkIHRLVkG–amide [NBD-T15,21dK-piscidin-1, T15,21dK-piscidin-1 labelled at its N-terminus by NBD]
fold lower fluorescence of hRBCs bound to peptide than cells bound to NBD-labeled piscidin-1 [13]: ~7.5 fold

polymyxin B [reference compound]
mortality rate of LPS-administered mice [14]: zero
